One data set has as its target T1, human GST-PIKFYVE (Homo sapiens, UniProt Q9Y2I7).
T1 construct: GST; purchased Carna biosciences 11-118
Nature of the data set: ADP-Glo kinase assay, enzyme inhibition activity against human PIKFYVE (Carna biosciences). Type of data set: biochemical. The note with it: inhibitory activity at final compound concentration 10 nM; 1 hour at room temperature. In outline:
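Human GST-PIKFYVE (glutathione Sepharose-purified) was reacted with substrate and ATP for 1 h at room temperature in 50 mM MOPS, 1 mM DTT, pH 7.2, with compound at 10 nM final. ADP formed was read by ADP-Glo luminescence; inhibition was calculated against no-enzyme (100%) and no-compound (0%) controls.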

The target of a further data set is T2, PIKFYVE (Homo sapiens, UniProt Q9Y2I7).
T2 construct: host or cells: HEK293 (ATCC, CRL-1573)
Nature of the data set: NanoBRET TE Intracellular Kinase Assay, interaction of PIKFYVE and compounds in HEK293 cells. The note with it: IC50 class from BRET; HEK293 cells expressing PIKFYVE-NanoLuc; 2 hours incubation. Type of data set: cell-based. In outline: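 HEK293 cells transiently expressing a PIKFYVE-NanoLuc fusion were incubated 2 h at 37 °C, 5% CO2 with compound plus NanoBRET tracer. BRET was read after adding Nano-Glo substrate, giving intracellular target engagement by tracer displacement.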

Data set [1] in a line: Microsomal metabolic stability assay. It counts as in vitro ADME, human or CD1 male mouse. Particulars: Clint class; 1 μM compound, 0.5 mg/ml microsomes, NADPH, UDPGA, Alamethicin; species not given. On the procedure: The microsomal metabolic stability assay was performed using pooled human or CD1 male mouse interspecies microsomes. Supplemental cofactors (NADPH, UDPGA) and microsomal membrane pore-forming factor (Alamethicin) were added to promote cytochrome P450 (CYP), UGT reactivity to the target compound. Test compounds (1 μM incubation concentration) and microsomes (0.5 mg/ml incubation concentration) were diluted in 0.1 M phosphate buffer, pH 7.4, and incubated (37° C.). The reaction was initiated by the addition of NADPH (1 mM), UDPGA (1 mM) and Alamethicin (25 μg/mg). The incubation times were 0, 5, 15, 30, and 45 minutes, and at each time point, the reaction was terminated by adding acetonitrile containing internal standard (IS)(1:3 ratio). The plate was then sealed, centrifuged (3000 rpm, 20 min, 4° C.), and the supernatant was analyzed by LC-MS/MS. Hepatic extraction ratio values were calculated from the measured in vitro clearance and Intrinsic clearance (Clint) values were calculated from the assay results, and the respective Clint values were categorized into Low, Medium, and High categories based on the reference document (ref. Prostaglandins & other lipid mediators 136 (2018): 90-95).

pIC50: −log10 of the molar value. A value given as a limit tells only on which side of the number the result lay.

The source of these data is patent US20250388582A1, “NOVEL BICYCLIC HETEROARYL COMPOUND AND USE THEREOF” (ILDONG PHARMACEUTICAL CO., LTD., priority 2022, published 2025).

T1 sequence (Q9Y2I7 whole entry): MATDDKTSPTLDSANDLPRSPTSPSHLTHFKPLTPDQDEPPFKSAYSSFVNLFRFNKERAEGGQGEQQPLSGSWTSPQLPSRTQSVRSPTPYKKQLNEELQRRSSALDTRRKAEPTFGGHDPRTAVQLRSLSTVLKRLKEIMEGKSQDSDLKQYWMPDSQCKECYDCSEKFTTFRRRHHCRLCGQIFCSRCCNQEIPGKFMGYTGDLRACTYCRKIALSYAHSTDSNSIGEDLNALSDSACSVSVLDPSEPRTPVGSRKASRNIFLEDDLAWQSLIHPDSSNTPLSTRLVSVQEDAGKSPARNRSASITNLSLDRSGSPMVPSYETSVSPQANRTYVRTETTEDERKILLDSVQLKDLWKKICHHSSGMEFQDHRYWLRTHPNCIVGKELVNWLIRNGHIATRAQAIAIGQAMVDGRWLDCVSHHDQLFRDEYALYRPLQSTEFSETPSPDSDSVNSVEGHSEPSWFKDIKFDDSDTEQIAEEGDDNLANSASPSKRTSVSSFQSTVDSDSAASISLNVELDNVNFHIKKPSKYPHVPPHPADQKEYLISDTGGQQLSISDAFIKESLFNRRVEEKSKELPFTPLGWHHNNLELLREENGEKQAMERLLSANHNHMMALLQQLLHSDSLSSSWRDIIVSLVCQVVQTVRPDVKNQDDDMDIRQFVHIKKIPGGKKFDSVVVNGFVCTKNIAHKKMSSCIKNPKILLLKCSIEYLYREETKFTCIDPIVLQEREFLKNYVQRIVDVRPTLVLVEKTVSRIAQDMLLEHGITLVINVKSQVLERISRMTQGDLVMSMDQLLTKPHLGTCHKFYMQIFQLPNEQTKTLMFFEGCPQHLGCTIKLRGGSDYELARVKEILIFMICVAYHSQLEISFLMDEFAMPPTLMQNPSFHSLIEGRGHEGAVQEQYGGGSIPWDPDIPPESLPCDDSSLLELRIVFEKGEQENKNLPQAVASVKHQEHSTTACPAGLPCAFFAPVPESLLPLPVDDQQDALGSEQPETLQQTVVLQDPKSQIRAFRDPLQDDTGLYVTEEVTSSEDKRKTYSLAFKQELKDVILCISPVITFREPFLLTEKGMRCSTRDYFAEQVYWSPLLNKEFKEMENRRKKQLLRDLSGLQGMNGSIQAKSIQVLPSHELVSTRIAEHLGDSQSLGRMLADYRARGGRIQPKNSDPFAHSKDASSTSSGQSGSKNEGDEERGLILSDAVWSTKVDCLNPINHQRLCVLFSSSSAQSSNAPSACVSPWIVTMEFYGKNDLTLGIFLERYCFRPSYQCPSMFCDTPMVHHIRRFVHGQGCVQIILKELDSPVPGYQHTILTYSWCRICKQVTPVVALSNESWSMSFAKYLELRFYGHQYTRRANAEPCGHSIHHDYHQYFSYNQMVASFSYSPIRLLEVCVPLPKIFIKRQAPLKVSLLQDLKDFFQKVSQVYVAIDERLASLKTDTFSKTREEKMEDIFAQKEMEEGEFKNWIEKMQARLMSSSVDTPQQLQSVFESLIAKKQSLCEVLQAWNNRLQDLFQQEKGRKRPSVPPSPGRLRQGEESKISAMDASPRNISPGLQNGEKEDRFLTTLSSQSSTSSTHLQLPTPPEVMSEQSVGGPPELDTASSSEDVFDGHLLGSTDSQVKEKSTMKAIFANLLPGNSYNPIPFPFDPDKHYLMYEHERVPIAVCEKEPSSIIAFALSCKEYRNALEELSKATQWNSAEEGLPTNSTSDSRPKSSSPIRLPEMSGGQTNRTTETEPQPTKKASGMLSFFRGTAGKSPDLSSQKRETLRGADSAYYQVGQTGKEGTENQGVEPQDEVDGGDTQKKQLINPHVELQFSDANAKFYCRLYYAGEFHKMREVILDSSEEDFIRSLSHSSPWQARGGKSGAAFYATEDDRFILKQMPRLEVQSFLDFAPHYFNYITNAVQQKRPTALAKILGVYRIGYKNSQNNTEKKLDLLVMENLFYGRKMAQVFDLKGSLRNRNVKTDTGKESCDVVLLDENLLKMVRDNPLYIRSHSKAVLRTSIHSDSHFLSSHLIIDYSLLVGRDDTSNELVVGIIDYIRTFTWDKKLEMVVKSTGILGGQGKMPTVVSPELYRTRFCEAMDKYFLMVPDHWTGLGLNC
T2 sequence (Q9Y2I7 whole entry): as above

Consider `Cc1cccc(/C=N/Nc2nc(N3CCOCC3)nc3c2ncn3-c2cccc(C)n2)c1` [Example 141, (E)-4-(6-(2-(3-methylbenzylidene)hydrazinyl)-9-(6-methylpyridin-2-yl)-9H-purin-2-yl)morpholine], for which, at human GST-PIKFYVE, the “ADP-Glo kinase assay (%, 10 nM)” value was 88.29%. Also, the negative logarithm of the IC50 (pIC50) on PIKFYVE is at least 8.00. Besides, the Microsomal metabolic stability result in data set [1] was “medium”.
In the case of `Cc1cccc(/C=N/Nc2nc(N3CCOCC3)nc3c2ncn3-c2cc(C)n(C)n2)c1` [Example 147, (E)-4-(9-(1,5-dimethyl-1H-pyrazol-3-yl)-6-(2-(3-methylbenzylidene)hydrazinyl)-9H-purin-2-yl)morpholine], the “ADP-Glo kinase assay (%, 10 nM)” value on human GST-PIKFYVE was found to be 88.80%. This compound also gave a pIC50 at PIKFYVE of at least 8.00. Also, in data set [1], the Microsomal metabolic stability result is recorded as “Medium (Medium 8.8~48,)”.
Taken in the same sequence, the figures for `Cc1cccc(/C=N/Nc2nc(N3CCOCC3)nc3c2ncn3-c2ccc(F)cn2)c1` [Example 149, (E)-4-(9-(5-fluoropyridin-2-yl)-6-(2-(3-methylbenzylidene)hydrazinyl)-9H-purin-2-yl)morpholine] were 83.75%, at least 8.00 and “Medium (Medium 8.8~48,)”.
On the same counts, the results for `Cc1cccc(/C=N/Nc2nc(N3CCOCC3)nc3c2nc(C)n3CC(=O)c2ccccn2)c1` [Example 157, (E)-2-(8-methyl-6-(2-(3-methylbenzylidene)hydrazinyl)-2-morpholino-9H-purin-9-yl)-1-(pyridin-2-yl)ethan-1-one] are 71.16%, 7.70 to 8.00 and “Medium (Medium 8.8~48,)”.
On the same counts, the results for `Cc1cccc(/C=N/Nc2nc(N3CCOCC3)nc3c2nc(C)n3-c2ccccc2)c1` [Example 165, (E)-4-(8-methyl-6-(2-(3-methylbenzylidene)hydrazinyl)-9-phenyl-9H-purin-2-yl)morpholine] are 73.72%, 7.70 to 8.00 and “medium”.
Regarding `Cc1cccc(/C=N/n2cnc3c(Nc4ccncc4)nc(N4CCOCC4)nc32)c1` [Example 166, (E)-9-((3-methylbenzylidene)amino)-2-morpholino-N-(pyridin-4-yl)-9H-purin-6-amine], the “ADP-Glo kinase assay (%, 10 nM)” value at human GST-PIKFYVE is recorded as 90.77%. The compound also gave a negative logarithm of the IC50 (pIC50) at PIKFYVE of at least 8.00. Moreover, the Microsomal metabolic stability result in data set [1] was “medium”.
Taken in the same sequence, the figures for `Cc1cccc(/C=N/Nc2nc(N3CCOCC3)nc3c2ncn3-c2cccc(N(C)C)c2)c1` [Example 202, (E)-N,N-dimethyl-3-(6-(2-(3-methylbenzylidene)hydrazinyl)-2-morpholino-9H-purin-9-yl)aniline] were 80.47%, at least 8.00 and “low”.
Taken in the same sequence, the figures for `Cc1cccc(/C=N/Nc2nc(N3CCOCC3)nc3c(-c4cnn(C)c4)cccc23)c1` [Example 209, (E)-4-(8-(1-methyl-1H-pyrazol-4-yl)-4-(2-(3-methylbenzylidene)hydrazinyl)quinazolin-2-yl)morpholine] were 94.99%, at least 8.00 and “medium”.
For the compound `Cc1cccc(/C=N/Nc2nc(N3CCOCC3)nc3c(-c4ccncc4)cccc23)c1` [Example 212, (E)-4-(4-(2-(3-methylbenzylidene)hydrazinyl)-8-(pyridin-4-yl)quinazolin-2-yl)morpholine], the “ADP-Glo kinase assay (%, 10 nM)” value at human GST-PIKFYVE is 88.34%. Further, the pIC50 on PIKFYVE was at least 8.00. Moreover, the Microsomal metabolic stability entry in data set [1] was “Low (Low <8.8,)”.
`Cc1cccc(/C=N/Nc2nc(N3CCOCC3)nc3c(-c4cccnc4)cccc23)c1` [Example 215, (E)-4-(4-(2-(3-methylbenzylidene)hydrazinyl)-8-(pyridin-3-yl)quinazolin-2-yl)morpholine]: the “ADP-Glo kinase assay (%, 10 nM)” value at human GST-PIKFYVE was found to be 81.70%. The same compound had a negative logarithm of the IC50 (pIC50) against PIKFYVE of at least 8.00. The Microsomal metabolic stability result in data set [1] is listed as “Medium (Medium 8.8~48,)”.
